Experimental data: patent US20020128258A1, “Therapeutical method involving subcutaneous administration of drugs containing cephalotaxine derivatives” (priority 2001, published 2002)
Entries after “also recorded” stand apart in the source; their conditions may differ. Read-outs that look alike come from different tables or passages of the source.

How the values were obtained:
[1] = system: Beagle Dog; assay: Subacute toxicity screening of two forms of HHT in one dog; format: in vivo; settings: for Clinical examination: clinical signs: single subcutaneous injection (hydrochloride day 5, base day 11); for Tolerance (toxicology conclusion): one dog, CIVI 48 hours or subcutaneous injection
Procedure: Species/Strain: Beagle Dog […]
treatment 1: Intravenous infusion (IV)
Treatments 2 and 3: subcutaneous injection (SQ) […]
treatment 1: continuous Intravenous infusion (CIVI) for 48 hours (days 1 and 2) treatment 2: single subcutaneous (SQ) injection on day 5 treatment 3: single subcutaneous (SQ) injection on day 11
Duration of treatment: see § administration/day […]
treatments 1 and 2: sterile isotonic saline solution

[2] = dog, in vivo, sc
Procedure: (§1) Comparative Pharmacokinetic Study in Dogs After Subcutaneous Injection of 5 mg/m2 of Hydrochloride and Base Forms of HHT
(§2) Number of animals/sex/dose: the same dog was used for each treatment
(§3) treatment 1: 0.25 mg/kg of substance A (HHT-hydrochloride form)
(§4) treatment 2: 0.25 mg/kg of substance A (HHT-hydrochloride form)
(§5) treatment 3: 0.25 mg/kg of substance B (HHT-base form)
(§6) Treatment 3: aqueous solution in 0.5% hydroxyethylcellulose with 0.1% Tween 80
(§7) Analytical method: HPLC with flourimetric detection
(§8) Blood samples were collected at time 0, 30, 60, 120, 240, 480 minutes and 24 hours then HHT concentration was determined in plasma by an HPLC method in using a fluorimetric detection.

[3] = system: patient with acute myeloid leukemia / blastic phase of chronic myelogenous leukemia
Procedure: In addition, this patient was not eligible for bone marrow transplantation. All current good clinical practices and applicable ethical rules were applied. […] Physicians of this institution were experienced with the clinical use of the same formulation by intravenous mode of administration in patients with myeloid leukemias. […] A 5 mg-vial of lyophilized HHT hydrochloride for injection was reconstituted with 2.5 mL of saline water for injection. A volume corresponding to 1 mg of HHT per square meter of body surface area per day divided In two daily subcutaneous injections (2 subcutaneous injections a day) was administered in a short single injection, during a period of nine (9) consecutive days.

[4] = system: patients; settings: continuous infusion 2.5 mg/m2 daily for 10 to 14 days; cited from earlier work
[5] = Comparative pharmacokinetic study in dogs after subcutaneous injection of hydrochloride and base forms of HHT; settings: dog, 0.25 mg/kg single subcutaneous injection
Procedure: as §1, §2, §3, §4, §5, §6, §7, §8

SMILES: COC(=O)C[C@](O)(CCCC(C)(C)O)C(=O)O[C@@H]1C(OC)=C[C@]23CCCN2CCc2cc4c(cc2[C@H]13)OCO4.Cl [HHT hydrochloride]
- Body weight loss ([1]; after treatment 1: 0.25 mg/kg continuous intravenous infusion 48 hours): 1.1 kg
- Body weight loss ([1]; after treatment 2: 0.25 mg/kg single subcutaneous injection on day 5): 0.4 kg
- Local tolerance, microscopic examination (histopathology) of skin biopsy ([1]; biopsy taken on day 6, the day after the SQ injection, 0.25 mg/kg): well tolerated at the local level
- Clinical signs following CIVI ([1]; one Beagle dog, 0.25 mg/kg, continuous intravenous infusion for 48 hours): No clinical signs
- Clinical examination: clinical signs ([1]; one Beagle dog, 0.25 mg/kg): yellowish vomiting, soft feces, transient decrease in activity and hypersalivation
- Tolerance (toxicology conclusion) ([1]; 0.25 mg/kg): good tolerance
- Bioavailability of salt form versus base form [2]: considerably higher (triple)
- Area under the curve (AUC) ([2]; 0.25 mg/kg): 280 ng·h/mL
- Calculated rate AUC HHT-hydrochloride/AUC HHT-base ([2]; 0.25 mg/kg): 3.24
- Maximum of concentration in plasma ([2]; 0.25 mg/kg): 112 ng/mL
- Time of maximum of concentration ([2]; 0.25 mg/kg): 2 h
- Local tolerance at the points of injection ([3]; human, in vivo): no local sign of intolerance
- Granulocyte count (peripheral blood counts) ([3]; patient #01, SQ 1 mg/m2/day, 9 days): relatively fast decrease
- Myelosuppressive effect, post-induction follow-up ([3]; patient #01, SQ 1 mg/m2/day, typical of intravenous HHT 2.5 mg/m2/day): strong myelosuppressive effect
- Clinical improvements compared with examples 3 and 4 ([3]; patient #03, acute myeloid leukemia): Same clinical improvements as those seen in example 3 and 4

SMILES: COC(=O)C[C@](O)(CCCC(C)(C)O)C(=O)O[C@@H]1C(OC)=C[C@]23CCCN2CCc2cc4c(cc2[C@H]13)OCO4 [HHT, homoharringtonine]
- Cardiovascular complications including hypotensive events and arrythmias, patients affected [4]: less than 5 % of patients

SMILES: COC(=O)C[C@](O)(CCCC(C)(C)O)C(=O)O[C@@H]1C(OC)=C[C@]23CCCN2CCc2cc4c(cc2[C@H]13)OCO4 [HHT-base, reference compound]
- Clinical examination: clinical signs ([1]; one Beagle dog, 0.25 mg/kg, 0.25 mg/kg): liquid feces with presence of blood, hypersalivation, decrease in activity, pallor of gingival mucous membranes and decrease in activity; also recorded: liquid feces, hypersalivation, decrease in activity and pallor of gingival mucous membrane
- Tolerance (toxicology conclusion) ([1]; 0.25 mg/kg): good tolerance
- Mortality, time after the beginning of the treatment ([1]; second subcutaneous injection, 0.25 mg/kg, day 11, same dog after earlier treatments): 8 h
- Area under the curve (AUC) [5]: 86.5 ng·h/mL
- Maximum of concentration in plasma [5]: 18 ng/mL
- Time of maximum of concentration [5]: 0.5 h
